# Structures can show the parent of a compound that is named as a salt. Where two headings read alike, the source gives them in different places.
# Columns and labels:
# [1] = system: Klebsiella pneumoniae PCI-602; experiment: Antibacterial spectrum, MIC by twofold agar dilution method; format: cell-based
# Experimental: (§1) Minimum inhibitory concentrations (MIC) of test compounds were determined by the twofold agar dilution method (Chemotherapy, 29(1), 76(1981)). Overnight cultures in Mueller-Hinton broth were suspended by buffered saline gelatin. One loopful of the bacterial suspension (10^6 or 10^8 colony-forming units/ml) was incubated onto the plates containing test compounds. The plates were incubated for 18 hrs at 37° C. The MIC was defined by the lowest concentration of the drug that inhibited visible growth of bacteria.
# [2] = system: Serratia marcescens HNR 1792; experiment: as above; format: cell-based; conditions: HNR1792, 10^6 cfu/ml, clinically isolated strain, Gram -, 18 hrs at 37° C
# Experimental: as §1, with “Overnight” for “Minimum inhibitory concentrations (MIC) of test compounds were determined by the twofold agar dilution method (Chemotherapy, 29(1), 76(1981)). Overnight”
# [3] = system: Enterobacter cloacae 963; experiment: as above; format: cell-based; conditions: 10^6 cfu/ml, standard laboratory strain, Gram -, 18 hrs at 37° C
# Experimental: as §1, with “Overnight” for “Minimum inhibitory concentrations (MIC) of test compounds were determined by the twofold agar dilution method (Chemotherapy, 29(1), 76(1981)). Overnight”
# [4] = system: Serratia marcescens IAM 1184; experiment: as above; format: cell-based; conditions: IAM1184, 10^6 cfu/ml, standard laboratory strain, Gram -, 18 hrs at 37° C
# Experimental: as §1, with “Overnight” for “Minimum inhibitory concentrations (MIC) of test compounds were determined by the twofold agar dilution method (Chemotherapy, 29(1), 76(1981)). Overnight”
# [5] = system: Klebsiella pneumoniae HNR 869; experiment: as above; format: cell-based; conditions: HNR869, 10^6 cfu/ml, clinically isolated strain, Gram -, 18 hrs at 37° C
# Experimental: as §1, with “Overnight” for “Minimum inhibitory concentrations (MIC) of test compounds were determined by the twofold agar dilution method (Chemotherapy, 29(1), 76(1981)). Overnight”
# [6] = system: Enterococcus faecalis HPC 948; experiment: as above; format: cell-based; conditions: HPC948, 10^6 cfu/ml, clinically isolated strain, Gram +, 18 hrs at 37° C
# Experimental: as §1, with “Overnight” for “Minimum inhibitory concentrations (MIC) of test compounds were determined by the twofold agar dilution method (Chemotherapy, 29(1), 76(1981)). Overnight”
# [7] = system: Staphylococcuss aureus HPC 292; experiment: as above; format: cell-based; conditions: 10^6 cfu/ml; clinically isolated strain, Gram +; 18 hrs at 37° C; read-out: MIC
# Experimental: as §1, with “Overnight” for “Minimum inhibitory concentrations (MIC) of test compounds were determined by the twofold agar dilution method (Chemotherapy, 29(1), 76(1981)). Overnight”
# [8] = system: Staphylococuss aureus FDA 209PJC-1; experiment: as above; format: cell-based; conditions: 10^6 cfu/ml; standard laboratory strain, Gram +; 18 hrs at 37° C
# Experimental: as §1, with “Overnight” for “Minimum inhibitory concentrations (MIC) of test compounds were determined by the twofold agar dilution method (Chemotherapy, 29(1), 76(1981)). Overnight”
# [9] = system: Klebsiella pneumoniae HNR 828; experiment: as above; format: cell-based; conditions: HNR828, 10^6 cfu/ml, clinically isolated strain, Gram -, 18 hrs at 37° C
# Experimental: as §1, with “Overnight” for “Minimum inhibitory concentrations (MIC) of test compounds were determined by the twofold agar dilution method (Chemotherapy, 29(1), 76(1981)). Overnight”
# [10] = system: Enterococcus faecalis HPC 984; experiment: as above; format: cell-based; conditions: HPC984, 10^6 cfu/ml, clinically isolated strain, Gram +, 18 hrs at 37° C
# Experimental: as §1, with “Overnight” for “Minimum inhibitory concentrations (MIC) of test compounds were determined by the twofold agar dilution method (Chemotherapy, 29(1), 76(1981)). Overnight”
# [11] = system: Acinetobacter calcoaceticus HNR 916; experiment: as above; format: cell-based; conditions: HNR916, 10^6 cfu/ml, clinically isolated strain, Gram -, 18 hrs at 37° C
# Experimental: as §1, with “Overnight” for “Minimum inhibitory concentrations (MIC) of test compounds were determined by the twofold agar dilution method (Chemotherapy, 29(1), 76(1981)). Overnight”
# [12] = system: Enterococcus faecalis HPC 975; experiment: as above; format: cell-based; conditions: HPC975, 10^6 cfu/ml, clinically isolated strain, Gram +, 18 hrs at 37° C
# Experimental: as §1, with “Overnight” for “Minimum inhibitory concentrations (MIC) of test compounds were determined by the twofold agar dilution method (Chemotherapy, 29(1), 76(1981)). Overnight”
# [13] = system: Pseudomonas aeruginosa HNR 1537; experiment: as above; format: cell-based; conditions: HNR1537, 10^6 cfu/ml, clinically isolated strain, Gram -, 18 hrs at 37° C
# Experimental: as §1, with “Overnight” for “Minimum inhibitory concentrations (MIC) of test compounds were determined by the twofold agar dilution method (Chemotherapy, 29(1), 76(1981)). Overnight”
# [14] = system: Escherichia coli NIHJ JC-2; experiment: as above; format: cell-based; conditions: NIHJJC2, 10^6 cfu/ml, standard laboratory strain, Gram -, 18 hrs at 37° C
# Experimental: as §1, with “Overnight” for “Minimum inhibitory concentrations (MIC) of test compounds were determined by the twofold agar dilution method (Chemotherapy, 29(1), 76(1981)). Overnight”
# [15] = system: Serratia marcescens HNR 1544; experiment: as above; format: cell-based; conditions: HNR1544, 10^6 cfu/ml, clinically isolated strain, Gram -, 18 hrs at 37° C
# Experimental: as §1, with “Overnight” for “Minimum inhibitory concentrations (MIC) of test compounds were determined by the twofold agar dilution method (Chemotherapy, 29(1), 76(1981)). Overnight”
# [16] = system: Enterobacter cloacae HNR 1941; experiment: as above; format: cell-based; conditions: HNR1941, 10^6 cfu/ml, clinically isolated strain, Gram -, 18 hrs at 37° C
# Experimental: as §1, with “Overnight” for “Minimum inhibitory concentrations (MIC) of test compounds were determined by the twofold agar dilution method (Chemotherapy, 29(1), 76(1981)). Overnight”
# [17] = system: Enterobacter cloacae HNR 1946; experiment: as above; format: cell-based; conditions: HNR1946, 10^6 cfu/ml, clinically isolated strain, Gram -, 18 hrs at 37° C
# Experimental: as §1, with “Overnight” for “Minimum inhibitory concentrations (MIC) of test compounds were determined by the twofold agar dilution method (Chemotherapy, 29(1), 76(1981)). Overnight”
# [18] = system: Pseudomonas aeruginosa HNR 1472; experiment: as above; format: cell-based; conditions: HNR1472, 10^6 cfu/ml, clinically isolated strain, Gram -, 18 hrs at 37° C
# Experimental: as §1, with “Overnight” for “Minimum inhibitory concentrations (MIC) of test compounds were determined by the twofold agar dilution method (Chemotherapy, 29(1), 76(1981)). Overnight”
# [19] = system: Pseudomonas aeruginosa IFO 3445; experiment: as above; format: cell-based; conditions: IFO3445, 10^6 cfu/ml, standard laboratory strain, Gram -, 18 hrs at 37° C
# Experimental: as §1, with “Overnight” for “Minimum inhibitory concentrations (MIC) of test compounds were determined by the twofold agar dilution method (Chemotherapy, 29(1), 76(1981)). Overnight”
# [20] = system: Pseudomonas aeruginosa HNR 1489; experiment: as above; format: cell-based; conditions: HNR1489, 10^6 cfu/ml, clinically isolated strain, Gram -, 18 hrs at 37° C
# Experimental: as §1, with “Overnight” for “Minimum inhibitory concentrations (MIC) of test compounds were determined by the twofold agar dilution method (Chemotherapy, 29(1), 76(1981)). Overnight”
# [21] = system: Staphylococcuss aureus HPC 527; experiment: as above; format: cell-based; conditions: 10^6 cfu/ml; clinically isolated strain, Gram +; 18 hrs at 37° C
# Experimental: as §1, with “Overnight” for “Minimum inhibitory concentrations (MIC) of test compounds were determined by the twofold agar dilution method (Chemotherapy, 29(1), 76(1981)). Overnight”
# [22] = system: Acinetobacter calcoaceticus HNR 939; experiment: as above; format: cell-based; conditions: HNR939, 10^6 cfu/ml, clinically isolated strain, Gram -, 18 hrs at 37° C
# Experimental: as §1, with “Overnight” for “Minimum inhibitory concentrations (MIC) of test compounds were determined by the twofold agar dilution method (Chemotherapy, 29(1), 76(1981)). Overnight”
# [23] = system: Acinetobacter calcoaceticus HNR 904; experiment: as above; format: cell-based; conditions: HNR904, 10^6 cfu/ml, clinically isolated strain, Gram -, 18 hrs at 37° C
# Experimental: as §1, with “Overnight” for “Minimum inhibitory concentrations (MIC) of test compounds were determined by the twofold agar dilution method (Chemotherapy, 29(1), 76(1981)). Overnight”
# [24] = system: Staphylococcuss aureus HPC 308; experiment: as above; format: cell-based; conditions: 10^6 cfu/ml; clinically isolated strain, Gram +; 18 hrs at 37° C
# Experimental: as §1, with “Overnight” for “Minimum inhibitory concentrations (MIC) of test compounds were determined by the twofold agar dilution method (Chemotherapy, 29(1), 76(1981)). Overnight”
# [25] = system: Klebsiella pneumoniae HNR 858; experiment: as above; format: cell-based; conditions: HNR858, 10^6 cfu/ml, clinically isolated strain, Gram -, 18 hrs at 37° C
# Experimental: as §1, with “Overnight” for “Minimum inhibitory concentrations (MIC) of test compounds were determined by the twofold agar dilution method (Chemotherapy, 29(1), 76(1981)). Overnight”
# [26] = system: Enterobacter cloacae HNR 1939; experiment: as above; format: cell-based; conditions: HNR1939, 10^6 cfu/ml, clinically isolated strain, Gram -, 18 hrs at 37° C
# Experimental: as §1, with “Overnight” for “Minimum inhibitory concentrations (MIC) of test compounds were determined by the twofold agar dilution method (Chemotherapy, 29(1), 76(1981)). Overnight”
# [27] = system: Serratia marcescens HNR 1767; experiment: as above; format: cell-based; conditions: HNR1767, 10^6 cfu/ml, clinically isolated strain, Gram -, 18 hrs at 37° C
# Experimental: as §1, with “Overnight” for “Minimum inhibitory concentrations (MIC) of test compounds were determined by the twofold agar dilution method (Chemotherapy, 29(1), 76(1981)). Overnight”
# [28] = system: Male mice of ddY strain; experiment: Acute toxicity (i.v.); format: in vivo; conditions: 270 mg/kg (i.v.)
# Experimental: Male mice of ddY strain, 4 weeks old, were used. Test compounds were solved in 0.1N--NaOH solution and neutralized with 0.1N--HCl solution. Each compound was administered intravenously (i.v.) at a dose of 270 mg/kg. […]
# [29] = system: Male mice of ddY strain; experiment: Convulsion inducing activity in combination with fenbufen; conditions: 30 min after fenbufen 100 mg/kg orally
# Experimental: Male mice of ddY strain, 5 weeks old, were used. Fenbufen suspended in 0.5% carboxymethyl cellulose was administered orally at a dose of 100 mg/kg. After thirty minutes, test compounds suspended in 0.5% carboxymethyl cellulose were injected intraperitoneally (i.p.) at a dose of 100 mg/kg or 300 mg/kg.
smiles,measurement,setting,value
"CC1Sc2c(C(=O)O)c(=O)c3cc(F)c(N4CCC(N(C)C)C4)c(Cl)c3n21 (stereo not shown) [Example 39, 8-Chloro-7-(3-dimethylamino-1-pyrrolidinyl)-6-fluoro-1-methyl-4-oxo-1H, 4H-[1,3]thiazeto[3,2-a]quinoline-3-carboxylic acid]",MIC,"[1]; PCI602, 10^6 cfu/ml, standard laboratory strain, Gram -, 18 hrs at 37° C, read-out: MIC",0.025 µg/mL
same,MIC,[2],12.5 µg/mL
same,MIC,[3],0.39 µg/mL
same,MIC,[4],0.39 µg/mL
same,MIC,[5],3.13 µg/mL
same,MIC,[6],1.56 µg/mL
same,MIC,[7],12.5 µg/mL
same,MIC,[8],0.2 µg/mL
same,MIC,[9],12.5 µg/mL
same,MIC,[10],0.39 µg/mL
same,MIC,[11],0.1 µg/mL
same,MIC,[12],12.5 µg/mL
same,MIC,[13],50 µg/mL
same,MIC,[14],0.1 µg/mL
same,MIC,[15],0.2 µg/mL
same,MIC,[16],12.5 µg/mL
same,MIC,[17],0.78 µg/mL
same,MIC,[18],25 µg/mL
same,MIC,[19],1.56 µg/mL
same,MIC,[20],1.56 µg/mL
same,MIC,[21],0.2 µg/mL
same,MIC,[22],1.56 µg/mL
same,MIC,[23],6.25 µg/mL
same,MIC,[24],1.56 µg/mL
same,MIC,[25],0.78 µg/mL
same,MIC,[26],0.78 µg/mL
same,MIC,[27],12.5 µg/mL
"O=C(O)c1cn(C2CC2)c2cc(N3CCNCC3)c(F)cc2c1=O [Reference Drug A, ciprofloxacin hydrochloride, reference compound]",MIC,"[1]; PCI602, 18 h",0.012 µg/mL
same,Number of death/Number of animals,[28],7/10
same,Number of convulsion induced/Number of animals,[29]; 100 mg/kg (i.p.),4/6
same,Number of convulsion induced/Number of animals,[29]; 300 mg/kg (i.p.),6/6

# From patent US5126337A, “Thiazetoquinoline-3-carboxylic acid derivative and a pharmaceutical composition comprising the same” (priority 1989, dated 1992)
